According to patent publication US20140172118A1, “Bioactive Compositions, Bioactive Eluting Devices and Methods of Use Thereof” (Cook Medical Technologies LLC, priority 2012, published 2014):

Assay: Ex-vivo delivery of doxazosin mesylate from coated polyurethane tubing to ureter tissue
Format: in vitro ADME
Conditions: 7 cm coated 6 Fr. polyurethane tubing in 9 cm porcine ureter, approximately 18 hours at 37° C., PBS pH=7.4; HPLC; compared with coating with no triacetin or DMSO; FIG. 6
Method: However, the increase in the amount bioactive delivered through a vessel wall may be characterized in an ex vivo assay in which the composition or implantable device is placed in a section of the appropriate vessel and incubated in a buffer solution for a fixed time. In one such assay, a device, for example, is placed in a section of porcine ureter, which is hydrated in a Phosphate Buffered Saline buffer. The ureter is incubated in a closed container for a fixed time, for example 24 hrs at 37 deg. C. […] The amount of bioactive present in the ureter and in the device is determined using, for example, an appropriate HPLC method. […]
A 7 cm section of each of the samples of tubing prepared as described in Example 1 is inserted into 9 cm of porcine ureter and incubated for approximately 18 hours at 37° C. in a screw capped glass vial hydrated with 0.25 ml of PBS (pH=7.4). […] The amount of doxazosin mesylate present in the tubing and in the ureter is determined as described in example 3.
Each of the samples from Example 2 is tested to determine the amount of doxazosin mesylate delivered to the ureter tissue. Doxazosin mesylate is extracted from each tube and ureter and the percentage that is delivered to each ureter is determined as follows. […] The amount of doxazosin mesylate in each of the ureter and the tubing is measured using HPLC.

Compound | percentage of doxazosin mesylate present in the ureter (amount delivered to ureter tissue)
C[S+](C)[O-] [DMSO, dimethyl sulfoxide] | increase the amount of doxazosin mesylate delivered
CC(=O)OCC(COC(C)=O)OC(C)=O [triacetin] | increase the amount of doxazosin mesylate delivered
